In patent US5753648A, “Tricyclic benzazepine vasopressin antagonists” (American Cyanamid Company, priority 1996, dated 1998):
Structures can show the parent of a compound that is named as a salt.

Tests used:
Rat Hepatic V1 Receptors = Rat Hepatic V1 Receptors (Rattus norvegicus, UniProt P30560); assay: Binding Assay to Rat Hepatic V1 Receptors
Method: Binding Assay to Rat Hepatic V1 Receptors
Rat liver plasma membranes expressing the vasopressin V1 receptor subtypes are isolated by sucrose density gradient according to the method described by Lesko et al, (1973). These membranes are quickly suspended in 50.0 mM Tris.HCl buffer, pH 7.4, containing 0.2% bovine serum albumin (BSA) and 0.1 mM phenylmethylsulfonylfluoride (PMSF) and kept frozen at -70° C. until used in subsequent binding experiments. For binding experiments, the following is added to the wells of a ninety-six well format microtiter plate: 100 μl of 100.0 mM Tris.HCl buffer containing 10.0 mM MgCl2, 0.2% heat inactivated BSA and a mixture of protease inhibitors: leupeptin, 1.0 mg %; aprotinin, 1.0 mg %; 1,10-phenanthroline,2.0 mg %; trypsin inhibitor, 10.0 mg % and 0.1 mM PMSF, 20.0 μl of [phenylalanyl-3,4,5,-^3 H] vaso-pressin (S.A. 45.1 Ci/mmole) at 0.8 nM, and the reaction initiated by the addition of 80 μl of tissue membranes containing 20 μg of tissue protein. The plates are kept undisturbed on the bench top at room temperature for 120 min. to reach equilibrium. Non-specific samples are assayed in the presence of 0.1 μm of the unlabeled antagonist phenylalanylvasopressin, added in 20.0 μl volume. For test compounds, these are solubilized in 50% dimethylsulfoxide (DMSO) and added in 20.0 μl volume to a final incubation volume of 200 μl. Upon completion of binding, the content of each well is filtered off, using a Brandel® cell Harvester (Gaithersburg, Md.). The radioactivity trapped on the filter disk by the ligand-receptor complex is assessed by liquid scintillation counting in a Packard LS Counter, with an efficiency of 65% for tritium. The data are analyzed for IC50 values by the LUNDON-2 program for competition (LUNDON SOFTWARE, Ohio).

[1] = target: T1, Rat Kidney Medullary V2 Receptors (Rattus norvegicus, UniProt Q00788); assay: biochemical; type: binding
T1 construct: Medullary tissues from rat kidneys are dissected out; from tissue; host or cells: rat kidney medulla membranes
Method: Binding Assay to Rat Kidney Medullary V2 Receptors
Medullary tissues from rat kidneys are dissected out, cut into small pieces and soaked in a […] sodium chloride solution containing 1.0 mM EDTA with many changes of the liquid phase, until the solution is clear of blood. The tissue is homogenized in a 0.25M sucrose solution containing 1.0 mM EDTA and 0.1 mM PMSF using a Potter-Elvehjem homogenizer with a teflon pestle. The homogenate is filtered through several layers (4 layers) of cheese cloth. The filtrate is rehomogenized using a dounce homogenizer, with a tight fitting pestle. The final homogenate is centrifuged at 1500×g for 15 min. The nuclear pellet is discarded and the supernatant fluid recentrifuged at 40,000×g for 30 min. The resulting pellet formed contains a dark inner part with the exterior, slightly pink. The pink outer part is suspended in a small amount of 50.0 mM Tris.HCl buffer, pH 7.4. The protein content is determined by the Lowry's method (Lowry et al, J. Biol. Chem., 1953). The membrane suspension is stored at -70° C., in 50.0 mM Tris.HCl, containing 0.2% inactivated BSA and 0.1 mM PMSF in aliquots of 1.0 ml containing 10.0 mg protein per ml of suspension until use in subsequent binding experiments.
For binding experiments, the following is added in μl volume to wells of a 96 well format of a microtiter plate: 100.0 μl of 100.0 mM Tris.HCl buffer containing 0.2% heat inactivated BSA, 10.0 mM MgCl2 and a mixture of protease inhibitors: leupeptin, 1.0 mg %; aprotinin, 1.0 mg %; 1,10-phenanthroline, 2.0 mg %; trypsin inhibitor, 10.0 mg % and 0.1 mM PMSF, 20.0 μl of [^3 H] Arginine^8, vasopressin (S.A. 75.0 Ci/mmole) at 0.8 nM and the reaction initiated by the addition of 80.0 μl of tissue membranes (200.0 μg tissue protein). The plates are left undisturbed on the bench top for 120 min. to reach equilibrium. Non-specific binding is assessed in the presence of 1.0 μM of unlabeled ligand, added in 20 μl volume. For test compounds, these are solubilized in 50% dimethylsulfoxide (DMSO) and added in 20.0 μl volume to a final incubation volume of 200 μl. Upon completion of binding, the content of each well is filtered off, using a Brandel® cell Harvester (Gaithersburg, Md.). The radioactivity trapped on the filter disk by the ligand-receptor complex is assessed by liquid scintillation counting in a Packard LS Counter, with an efficiency of 65% for tritium. The data are analyzed for IC50 values by the LUNDON-2 program for competition (LUNDON SOFTWARE, Ohio).

oxytocin receptors = target: T2, oxytocin receptors (Rattus norvegicus, UniProt P70536); assay: Oxytocin Receptor Binding; settings: for IC50: rat uterine membranes, [3H]oxytocin
T2 sequence (P70536 1-388): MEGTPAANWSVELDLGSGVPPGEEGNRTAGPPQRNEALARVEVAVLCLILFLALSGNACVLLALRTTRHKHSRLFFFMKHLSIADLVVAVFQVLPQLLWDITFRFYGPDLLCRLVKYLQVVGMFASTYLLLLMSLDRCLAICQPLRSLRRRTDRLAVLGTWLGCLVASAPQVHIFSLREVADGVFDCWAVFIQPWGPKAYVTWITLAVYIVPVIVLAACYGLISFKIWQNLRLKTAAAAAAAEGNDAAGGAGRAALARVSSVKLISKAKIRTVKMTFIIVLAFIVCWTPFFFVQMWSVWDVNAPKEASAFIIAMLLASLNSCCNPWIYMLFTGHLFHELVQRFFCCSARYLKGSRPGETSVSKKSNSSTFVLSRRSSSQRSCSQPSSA
Method: Female Sprague-Dawley rats weighing approximately 200-250 g are injected intramuscularly (i.m.) with 0.3 mg/kg of body weight of diethylstilbestrol (DES). The rats are sacrificed 18 hours later under pentobarbital anesthesia. The uteri are dissected out, cleaned of fat and connective tissues and rinsed in 50 ml of normal saline. The tissue pooled from six rats is homogenized in 50 ml of 0.01 mM Tris.HCl, containing 0.5 mM dithiothreitol and 1.0 mM EDTA, adjusted to pH 7.4, using a polytron at setting 6 with three passes of 10 sec each. The homogenate is passed through two (2) layers of cheesecloth and the filtrate centrifuged at 1000×g for 10 min. The clear supernatant is removed and recentrifuged at 165,000×g for 30 min. The resulting pellet containing the oxytocin receptors is resuspended in 50.0 mM Tris.HCl containing 5.0 mM MgCl2 at pH 7.4, to give a protein concentration of 2.5 mg/ml of tissue suspension. This preparation is used in subsequent binding assays with [^3 H]Oxytocin.
Binding of 3,5-[^3 H]Oxytocin ([^3 H]OT) to its receptors is done in microtiter plates using [^3 H]OT, at various concentrations, in an assay buffer of 50.0 mM Tris.HCl, pH 7.4 and containing 5.0 mM MgCl2, and a mixture of protease inhibitors: BSA, 0.1 mg; aprotinin, 1.0 mg; 1,10-phenanthroline, 2.0 mg; trypsin, 10.0 mg; and PMSF, 0.3 mg per 100 ml of buffer solution. Non-specific binding is determined in the presence of 1.0 uM unlabeled OT. The binding reaction is terminated after 60 min., at 220° C., by rapid filtration through glass fiber filters using a Brandel® cell harvester (Bio-medical Research and Development Laboratories, Inc., Gaithersburg, Md.). Competition experiments are conducted at equilibrium using 1.0 nM [^3 H]OT and varying the concentration of the displacing agents. The concentrations of agent displacing 50% of [^3 H]OT at its sites (IC50) are calculated by a computer assisted LUNDON-2 program (LUNDON SOFTWARE INC., Ohio, USA).

T1 sequence (Q00788 whole entry): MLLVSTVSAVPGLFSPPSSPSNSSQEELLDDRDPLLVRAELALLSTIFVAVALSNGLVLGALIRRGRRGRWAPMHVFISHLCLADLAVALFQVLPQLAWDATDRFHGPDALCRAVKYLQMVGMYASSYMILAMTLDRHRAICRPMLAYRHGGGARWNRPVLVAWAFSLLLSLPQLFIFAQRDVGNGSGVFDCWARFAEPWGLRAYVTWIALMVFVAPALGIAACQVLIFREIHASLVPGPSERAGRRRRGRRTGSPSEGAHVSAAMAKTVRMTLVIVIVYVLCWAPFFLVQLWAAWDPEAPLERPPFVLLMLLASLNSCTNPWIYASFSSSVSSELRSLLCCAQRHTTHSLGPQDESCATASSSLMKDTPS
Sequence of Rat Hepatic V1 Receptors (P30560 whole entry): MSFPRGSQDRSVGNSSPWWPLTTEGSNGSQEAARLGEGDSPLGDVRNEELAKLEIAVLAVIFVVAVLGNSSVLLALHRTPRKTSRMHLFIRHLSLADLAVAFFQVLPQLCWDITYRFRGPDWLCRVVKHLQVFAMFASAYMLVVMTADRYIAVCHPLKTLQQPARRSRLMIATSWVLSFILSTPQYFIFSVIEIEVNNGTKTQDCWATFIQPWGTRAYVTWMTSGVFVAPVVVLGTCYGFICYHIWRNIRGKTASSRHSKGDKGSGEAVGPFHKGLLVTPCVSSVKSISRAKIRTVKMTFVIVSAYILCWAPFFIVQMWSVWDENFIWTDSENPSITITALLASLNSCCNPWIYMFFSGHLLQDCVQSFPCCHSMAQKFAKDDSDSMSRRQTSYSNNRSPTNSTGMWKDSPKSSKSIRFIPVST

| IC50 (Rat Hepatic V1 Receptors) | IC50 [1] | inhibition at 1 µM (oxytocin receptors) | IC50 (oxytocin receptors) | inhibition at 10 µM (oxytocin receptors) | inhibition at 2.5 µM (oxytocin receptors; dose 2.5 μM) | Structure (SMILES) |
| --- | --- | --- | --- | --- | --- | --- |
| 0.011 µM | 0.0018 µM | 90% | 0.14 µM | – | – | O=C(Nc1ccc(C(=O)N2Cc3cccn3Cc3ccccc32)cn1)c1ccccc1Cl [Example 6] |
| 0.007 µM | 0.0016 µM | 89% | 0.15 µM | – | – | O=C(Nc1ccc(C(=O)N2Cc3cccn3Cc3ccccc32)cn1)c1ccccc1Br [Example 8] |
| 0.21 µM | 0.024 µM | – | 0.8 µM | 98% | – | Cc1ccccc1C(=O)Nc1ncc(C(=O)N2Cc3cccn3Cc3ccccc32)cc1Br [Example 12] |
| 0.45 µM | 0.03 µM | – | 0.51 µM | 95% | – | O=C(Nc1ccc(C(=O)N2Cc3cccn3Cc3ccccc32)cn1)c1ccc([N+](=O)[O-])cc1Cl [Example 33] |
| 0.087 µM | 0.011 µM | – | 0.73 µM | 95% | – | Cc1ccc(F)cc1C(=O)Nc1ccc(C(=O)N2Cc3ccnn3Cc3ccccc32)cn1 [Example 208, N-[5-(4H-Pyrazolo[5,1-c][1,4]benzodiazepin-5(10H)-ylcarbonyl)-2-pyridinyl]-5-fluoro-2-methylbenzamide] |
| 0.019 µM | 0.001 µM | – | – | – | – | O=C(Nc1ccc(C(=O)N2Cc3ccnn3Cc3ccccc32)cn1)c1ccccc1-c1ccccc1 [Example 245] |
| 0.2 µM | 0.36 µM | – | 0.38 µM | 98% | – | O=C(c1ccc(NCC2CCCCC2)nc1)N1Cc2cccn2Cc2ccccc21 [Example 263] |
| 0.19 µM | 0.082 µM | – | 0.056 µM | – | 95% | O=C(c1ccc(NCc2ccccc2)nc1)N1Cc2cccn2Cc2ccccc21 [Example 273, 10[[6-[(Phenylmethyl)amino]-3-pyridinyl]carbonyl]-10,11-dihydro-5H-pyrrolo[2,1-c][1,4]benzodiazepine] |
| 0.016 µM | 0.0015 µM | – | – | – | – | O=C(Nc1ccc(C(=O)N2Cc3cccn3Cc3ccccc32)c(Cl)c1)c1ccccc1-c1ccccc1 [Example 319, N-[4-(5H-Pyrrolo[2,1-c][1,4]benzodiazepin-10(11H)-ylcarbonyl)-3-chlorophenyl][1,1'-biphenyl]-2-carboxamide] |
| 0.0034 µM | 0.0026 µM | – | – | – | – | O=C(Nc1ccc(C(=O)N2Cc3cccn3Cc3ccccc32)cc1)c1ccccc1-c1ccccc1 [Example 320, N-[4-(5H-Pyrrolo[2,1-c][1,4]benzodiazepin-10(11H)-ylcarbonyl)phenyl][1,1'-biphenyl]-2-carboxamide] |
| 0.018 µM | 0.0051 µM | – | – | – | – | O=C(Nc1ccc(C(=O)N2Cc3cccn3Cc3ccccc32)cc1)c1ccccc1Cc1ccccc1 [Example 321, N-[4-(5H-Pyrrolo[2,1-c][1,4]benzodiazepine-10(11H)-ylcarbonyl)phenyl]-2-(phenylmethyl)benzamide] |
| 0.67 µM | 0.011 µM | – | – | – | – | O=C(Nc1ccc(C(=O)N2Cc3cccn3Cc3ccccc32)c(Cl)c1)c1ccccc1Cc1ccccc1 [Example 322, N-[4-(5H-Pyrrolo[2,1-c][1,4]benzodiazenin-10(11H)-ylcarbonyl)-3-chlorophenyl]-2-(phenylmethyl)benzamide] |
| 0.42 µM | 0.12 µM | 45% | – | – | – | O=C(Nc1ccc(C(=O)N2Cc3cccn3Cc3ccccc32)cc1)c1ccccc1-c1ccc(C(F)(F)F)cc1 [Example 324] |
| 0.35 µM | 0.028 µM | 56% | – | – | – | Cc1ncccc1C(=O)Nc1ccc(C(=O)N2Cc3cccn3Cc3ccccc32)cc1 [Example 327, N-[4-(5H-Pyrrolo[2,1-c][1,4]benzodiazepin-10(11H)-ylcarbonyl)phenyl]-2-methylpyridine-3-carboxamide] |
| 3.3 µM | 0.019 µM | – | 0.57 µM | 85% | – | Cc1ncccc1C(=O)Nc1ccc(C(=O)N2Cc3cccn3Cc3ccccc32)c(Cl)c1 [Example 328, N-[4-(5H-Pyrrolo[2,1-c][1,4]benzodiazepin-10(11H)-yl-carbonyl)-3-chlorophenyl]-2-methyl-pyridine-3-carboxamide] |
| 0.31 µM | 0.07 µM | – | 0.19 µM | 91% | – | Cc1ncccc1C(=O)Nc1ccc(C(=O)N2Cc3cccn3Cc3ccccc32)cn1 [Example 329, N-[5-(5H-Pyrrolo[2,1-c][1,4]benzodiazepin-10(11H)-ylcarbonyl]-2-pyridinyl]-2-methylpyridine-3-carboxamide] |
| 0.25 µM | 0.41 µM | – | 0.88 µM | 98% | – | O=C(Nc1ccc(C(=O)N2Cc3cccn3Cc3ccccc32)cc1)c1cccnc1Cl [Example 333, N-[4-(5H-Pyrrolo[2,1-c][1,4]benzodiazepin-10(11H)-ylcarbonyl)phenyl]-2-chloropyridine-3-carboxamide] |
| 1.3 µM | 0.65 µM | 16% | – | – | – | CN1CCN(c2ncccc2C(=O)Nc2ccc(C(=O)N3Cc4cccn4Cc4ccccc43)cc2)CC1 [Example 337, N-[4-(5H-pyrrolo[2,1-c][1,4]benzodiazepin-10(11H)-ylcarbonyl)phenyl]-2-(4-methyl-1-piperazinyl)-pyridine-3-carboxamide] |
| 0.02 µM | 0.004 µM | 74% | – | – | – | O=C(Nc1ccc(C(=O)N2Cc3cccn3Cc3ccccc32)cc1)c1ccccc1-c1ccccn1 [Example 341, N-[4-(5H-Pyrrolo[2,1-c][1,4]benzodiazepin-10(11H)-ylcarbonyl)phenyl]-2-(2-pyridinyl)benzamide] |

| Structure (SMILES) | IC50 (Rat Hepatic V1 Receptors) | IC50 [1] | inhibition at 1 µM (oxytocin receptors) | IC50 (oxytocin receptors) | inhibition at 10 µM (oxytocin receptors) | inhibition at 2.5 µM (oxytocin receptors; dose 2.5 μM) |
| --- | --- | --- | --- | --- | --- | --- |
| CN(C)c1ncccc1C(=O)Nc1ccc(C(=O)N2Cc3cccn3Cc3ccccc32)cc1 [Example 332, N-[4-(5H-Pyrrolo[2,1-c][1,4]benzodiazepin-10(11H)-ylcarbonyl)phenyl]-2-(dimethylamino)-pyridine-3-carboxamide Hydrochloride] | 0.031 µM | 0.0034 µM | – | 0.83 µM | – | – |
| CN(C)c1ncccc1C(=O)Nc1ccc(C(=O)N2Cc3cccn3Cc3ccccc32)cc1 [Example 338, N-[4-(5H-Pyrrolo[2,1-c][1,4]benzodiazepin-10(11H)-ylcarbonyl)phenyl]-2-(dimethylamino)-pyridine-3-carboxamide] | 0.037 µM | 0.0048 µM | – | 0.72 µM | 98% | – |
